What is called pIC50 is the negative decadic logarithm of the IC50, by convention in mol/L.

These results are taken from the COVID Moonshot data (paper PMC7615835).

Each structure is given as a SMILES string. pIC50: −log10 of the molar value. Values joined by “and” are separate entries in the source; they are usually repeats but may differ in a detail not shown here. Equal values may be shown once.

For this test, the target named is SARS-CoV-2 Main Protease (SARS-CoV-2) (UniProt P0DTD1).
Consider `O=C(Cc1cccc(Cl)c1)Nc1cccc2cn[nH]c12`, for which the negative logarithm of the IC50 (pIC50) is below 4.00.

As for `O=C(NCC1(C(=O)Nc2cncc3ccccc23)CCOc2ccc(Cl)cc21)C1COCCN1CC(F)(F)F` (centres undefined), the negative logarithm of the IC50 (pIC50) is 4.77 and 4.57.

In turn, `O=C(COc1cccc(Cl)c1)Nc1cncc2ccccc12` showed a negative logarithm of the IC50 (pIC50) of 4.95.

On to `Cc1cccc2ncnc(NC(C)c3ccc4[nH]c(=O)[nH]c4c3)c12` (centres undefined), for which the pIC50 is below 4.00.

In the case of `N#CC1(CS(=O)(=O)N2Cc3ccc(Cl)cc3C3(CCN(c4cncc5ccccc45)C3=O)C2)CCS(=O)(=O)CC1` (centres undefined), the pIC50 was 6.68.

Compound `CCOc1c(Cl)cccc1CC(=O)Nc1cncc2ccccc12` had a negative-log IC50 (pIC50) of 5.16.

With `CC(C)(C)c1ccc(N(C(=O)c2sc(N3CCOCC3)nc2Cl)C(C(=O)NCCc2cccc(F)c2)c2cccnc2)cc1` (centres undefined), the pIC50 is below 4.00.

For the compound `O=C(Cc1cc(Cl)cc(NCc2cccc(F)c2Cl)c1)Nc1cncc2ccccc12`, the negative logarithm of the IC50 (pIC50) was 5.65.

`COc1ccc2nnn(CC(=O)N(Cc3ccccn3)c3ccc(C4CCNCC4)cc3)c2c1` showed a pIC50 of 4.41.

`O=C(Cc1cc(Cl)cc(Nc2ccc(C(F)(F)F)cc2)c1)Nc1cncc2ccccc12` gave a negative-log IC50 (pIC50) of 5.69.

Take `O=C(Cc1cc(Cl)cc(Nc2ccc(Cl)c(Cl)c2F)c1)Nc1cncc2ccccc12`: the pIC50 was 5.65.

Consider `Cc1cc(C)nc(NC2CCN(C(=O)CCl)CC2)n1`, for which the pIC50 was 4.56.

The compound `COc1cc(C)ccc1CN(C(=O)c1cocn1)C(C(=O)NCCc1cccc(F)c1)c1cccnc1` (centres undefined) gave a pIC50 below 4.00.

As to `Cc1ccc(Nc2cc(Cl)cc(CC(=O)Nc3cncc4ccccc34)c2)cc1Br`, the pIC50 was 5.68.

The compound `CC(C)C[C@@H]1CN(C(=O)CCl)CCN1Cc1cccc(Cl)c1` (stereo in doubt) gave a pIC50 of 6.11.

`O=C(NCCc1cccc(F)c1)C(c1cccnc1)N(C(=O)c1cocn1)C1CCC2(CCO2)CC1` (centres undefined) showed a pIC50 below 4.00.

Take `COC(CNC(=O)C(c1cccnc1)N(C(=O)c1cocn1)c1ccc(C(C)(C)C)cc1)OC` (centres undefined): the pIC50 is 5.10.

On to `CC(NCc1c[nH]c2nccnc12)c1cc(F)ccc1N1CCC(O)CC1` (centres undefined), for which the pIC50 is below 4.00.

`N#Cc1ccccc1NC(=O)[C@@H](c1ccccc1)N1Cc2ccccc2C1=O` (stereo in doubt) showed a pIC50 below 4.00.

`Cc1nc2sccn2c1CN(C)C(=O)c1cn2ccccc2n1` had a pIC50 below 4.00.

Turning to `COc1ccc([C@H](C)Nc2cc(Cl)cc(CC(=O)Nc3cncc4ccccc34)c2)cc1` (stereo in doubt), the negative logarithm of the IC50 (pIC50) is 5.33.

For `N#CC1CN(S(=O)(=O)N2Cc3ccc(Cl)cc3C3(CCN(c4cncc5ccccc45)C3=O)C2)C1` (centres undefined), the pIC50 was 6.74.

Compound `CC(C)(C)c1ccc(N(C(=O)c2c[nH]c(=O)cn2)C(C(=O)NCCc2cccc(F)c2)c2cccnc2)cc1` (centres undefined) had a pIC50 of 4.11.

The compound `CC(C)(C)c1ccc(N(C(=O)c2ccncc2)C(C(=O)NCCc2cccc(F)c2)c2cccnc2)cc1` (centres undefined) gave a negative logarithm of the IC50 (pIC50) below 4.00.

Turning to `O=C(NCCc1cccc(F)c1)C(c1cccnc1)N(C(=O)c1cocn1)c1ccc(OC2CCOC2)cc1` (centres undefined), the pIC50 is 5.20.

Take `Cc1cnnn1-c1ccc(N(C(=O)c2cocn2)C(C(=O)NCCc2cccc(F)c2)c2cccnc2)cc1` (centres undefined): the negative logarithm of the IC50 (pIC50) was 4.55. This pIC50 is 0.65 log units lower than that of the compound before.

`O=C(Nc1ccncc1)[C@@H](c1ccccc1)N1Cc2ccccc2C1=O` (stereo in doubt) showed a negative logarithm of the IC50 (pIC50) below 4.00.

The compound `Cc1cc(C)[n+](C)c(C#N)n1` had a pIC50 below 4.00.

Regarding `O=C(Cn1nnc2ccccc21)N(Cc1cccc(Cl)c1)c1ccc(N2CCCCC2)cc1`, the pIC50 is 5.44.

`CC1CN(CCO)CCN1C(=O)CC1(C(=O)Nc2cncc3ccccc23)CCOc2ccc(Cl)cc21` (centres undefined): the pIC50 is 4.84. Compared with the last compound, the pIC50 is 0.60 log units lower.

The compound `COc1ccc(N(C(=O)c2ccco2)C(C(=O)NCCc2cccc(F)c2)c2cccnc2)cc1NC(=O)C1CCCCC1` (centres undefined) had a pIC50 of 4.20.

`CC(=O)NCC1(C(=O)Nc2cncc3ccccc23)CCOc2ccc(Cl)cc21` (centres undefined) gave a pIC50 of 5.48. This pIC50 is 1.28 log units higher than that of the compound before.

Consider `Cc1nc(-c2cccc(NCc3ccccc3C)c2)n[nH]1`, for which the pIC50 is below 4.00.

`C=CC(=O)NCc1ccc(C(=O)NCc2cc(C)cc3c(C)c(C)[nH]c23)cc1` showed a negative-log IC50 (pIC50) below 4.00.

With `O=C1CCCN(S(=O)(=O)c2cccc(F)c2)CC1`, the pIC50 is below 4.00.

Compound `Cc1ccc(S(=O)(=O)NC2CCN(C(=O)CCl)CC2)cc1` had a pIC50 of 4.47.

Turning to `O=C(Cc1cc(Cl)cc(Nc2ccc(Cl)nc2Cl)c1)Nc1cncc2ccccc12`, the pIC50 was 5.64.

In the case of `Cc1cc(Br)cc(C)c1Nc1cc(Cl)cc(CC(=O)Nc2cncc3ccccc23)c1`, the pIC50 was 5.77.

In the case of `O=C(Cc1cccc(Cl)c1)Nc1cncc2cnoc12`, the pIC50 is 4.62.

Regarding `COc1cc(C(=O)N(c2ccc(C(C)(C)C)cc2)C(C(=O)NCCc2cccc(F)c2)c2cccnc2)sn1` (centres undefined), the negative-log IC50 (pIC50) was below 4.00.

`O=C1N(Cc2cccc(Cl)c2)CCN1c1nccc2n[nH]cc12` had a pIC50 of 5.34.

As for `CNC(=O)CN1Cc2ccc(Cl)cc2C2(CCN(c3cncc4ccc(OC)cc34)C2=O)C1` (centres undefined), the negative-log IC50 (pIC50) is 6.82.

As to `CC(C)(C)c1ccc(N(C(=O)c2nc3c(s2)CCC3)C(C(=O)NCCc2cccc(F)c2)c2cccnc2)cc1` (centres undefined), the pIC50 is below 4.00.

With `Cn1ccc(CN2Cc3ccc(Cl)cc3C(C(=O)Nc3cncc4ccc(F)cc34)C2)n1` (centres undefined), the negative-log IC50 (pIC50) is 5.87.

On to `O=C(NCCc1cccc(F)c1)C(c1cccnc1)N(C(=O)c1cnc[nH]1)c1cccc(C2COC2)c1` (centres undefined), for which the negative logarithm of the IC50 (pIC50) was below 4.00.

`O=C(Cc1cc(Cl)cc(NCc2cccc(Br)c2)c1)Nc1cncc2ccccc12` had a negative logarithm of the IC50 (pIC50) of 5.83.

With `O=C1CC2(CCOc3ccc(Cl)cc32)CN1c1cncc2ccccc12` (centres undefined), the pIC50 is 5.17.

Compound `O=C(Cc1cc(Cl)cc(NCCc2ccc(Cl)c(Cl)c2)c1)Nc1cncc2ccccc12` had a negative-log IC50 (pIC50) of 5.27.

Take `O=C(CN1CC(C(=O)Nc2cncc3cc(F)ccc23)c2cc(Cl)ccc2C1=O)NCC(F)(F)F` (centres undefined): the pIC50 is 6.06.

`Cn1ncc(C(=O)N(c2ccc(C(C)(C)C)cc2)C(C(=O)NCCc2cccc(F)c2)c2cccnc2)n1` (centres undefined) had a negative logarithm of the IC50 (pIC50) of 4.75.

`CCCCc1nc(-c2nccn2CC(F)(F)F)c[nH]1`: the pIC50 is 4.64.

Regarding `C[C@H](C/C=C/C(C)(C)O)[C@H]1CC[C@@]2(C)[C@@H]3C=C[C@]45OC(O)[C@@]3(CC[C@]12C)[C@@H]4CC[C@H](O[C@@H]1O[C@H](CO)[C@@H](O)[C@H](O)[C@H]1O)C5(C)C` (stereo in doubt), the negative logarithm of the IC50 (pIC50) is below 4.00.

Turning to `COc1ccc(C(Cc2cnn(C)c2)C(=O)Nc2c[nH]c3ccccc23)cc1` (centres undefined), the negative logarithm of the IC50 (pIC50) is below 4.00.

As to `CCCCc1nc(-c2nccn2CCc2ccccn2)c[nH]1`, the pIC50 is 4.66.

Compound `COc1c(O[C@@H]2O[C@H](CO)[C@@H](O)[C@H](O)[C@H]2O)cc2oc(-c3ccc(O)cc3)cc(=O)c2c1O` (stereo in doubt) gave a pIC50 below 4.00.

The compound `N#CC1(CS(=O)(=O)N2Cc3ccc(Cl)cc3[C@@H](C(=O)Nc3cncc4ccccc34)C2)CCS(=O)(=O)CC1` (stereo in doubt) gave a negative logarithm of the IC50 (pIC50) of 4.82.

In turn, `O=C(Nc1cccc(C(F)(F)F)c1)Nc1ccccc1Sc1ncc([N+](=O)[O-])s1` had a pIC50 of 5.20.

On to `Cc1ccc2ccccc2c1Nc1cc(Cl)cc(CC(=O)Nc2cncc3ccccc23)c1`, for which the pIC50 is 5.60.

`C=CC(=O)N(c1ccc(C(C)(C)C)cc1)C(C(=O)Nc1ccc2c(c1)OCO2)c1cccnc1` (centres undefined): the pIC50 is 4.44.

For the compound `N#CC1(CS(=O)(=O)N2Cc3ccc(Cl)cc3C3(CCN(c4cncc5ccccc45)C3=O)C2)CCOCC1` (centres undefined), the pIC50 was 6.47. This pIC50 is 2.03 log units higher than that of the compound before.

In turn, `Cn1cncc1NC(=O)Cc1cccc(Cl)c1` gave a negative logarithm of the IC50 (pIC50) of 4.03.

Take `CN(CC#N)S(=O)(=O)N1Cc2ccc(Cl)cc2C2(CCN(c3cncc4ccccc34)C2=O)C1` (centres undefined): the pIC50 is 6.39.

`O=C(NCC(=O)N1CCCC1c1nc2ccccc2[nH]1)C1CCCC1` (centres undefined): the pIC50 is below 4.00.

Take `O=C(NCCc1cccc(F)c1)C(c1cccnc1)N(C(=O)c1cocn1)C1CCCCC1` (centres undefined): the pIC50 is below 4.00.

The compound `O=C(Cc1cc(Cl)cc(N[C@H](c2ccccc2)[C@@H](O)c2ccccc2)c1)Nc1cncc2ccccc12` (stereo in doubt) gave a negative logarithm of the IC50 (pIC50) of 5.65.

`COc1ccc(N(Cc2ccccc2)C(=O)Cc2c[nH]c3ccccc23)cc1` had a pIC50 below 4.00.

As for `O=C(Nc1ccc(F)cc1)[C@@H](c1ccccc1)N1Cc2ccccc2C1=O` (stereo in doubt), the pIC50 is below 4.00.

`CC(=O)c1ccccc1C(=O)N(c1ccc(C(C)(C)C)cc1)C(C(=O)NCCc1cccc(F)c1)c1cccnc1` (centres undefined) gave a negative logarithm of the IC50 (pIC50) below 4.00.

`C=CC(=O)N(c1ccc(C(C)(C)C)cc1)C(C(=O)NC(C)(C)C)c1cccnc1` (centres undefined) showed a pIC50 below 4.00.

`O=C(Cc1cc(Cl)cc(N2CCC(Oc3ccccc3)CC2)c1)Nc1cncc2ccccc12`: the negative logarithm of the IC50 (pIC50) was 5.76.

The compound `N#Cc1ccc(CC(=O)Nc2cncc3ccccc23)cc1` gave a pIC50 below 4.00.

The compound `CN(C)C(=O)CN1CCC(C(=O)Nc2cncc3ccccc23)c2cc(Cl)ccc21` (centres undefined) showed a pIC50 of 5.60.

Turning to `O=C(Cc1cccc(Cl)c1)Nc1n[nH]c2ccncc12`, the negative logarithm of the IC50 (pIC50) was below 4.00.

In turn, `CC(C)S(=O)(=O)c1ccc(N(C(=O)c2cnc[nH]2)C(C(=O)NCCc2cccc(F)c2)c2cccnc2)cc1` (centres undefined) showed a pIC50 below 4.00.

In turn, `O=C(Cc1ccc(Cl)c(F)c1)Nc1cncc2ccccc12` showed a pIC50 of 5.69.

Consider `O=C(Cc1cccc(Cl)c1)Nc1[nH]nc2cccnc12`, for which the negative-log IC50 (pIC50) was below 4.00.

The compound `CC(C)(C)c1ccc(N(C(=O)c2nc(=O)[nH][nH]2)C(C(=O)NCCc2cccc(F)c2)c2cccnc2)cc1` (centres undefined) showed a negative logarithm of the IC50 (pIC50) below 4.00.

`Cn1ncc2cncc(NC(=O)C3CN(S(=O)(=O)CC4(C#N)CC4)Cc4ccc(Cl)cc43)c21` (centres undefined) gave a pIC50 of 5.60.

For the compound `CC(C)(C)c1ccc(N(C(=O)c2cocn2)C(C(=O)NCCc2cccc(F)c2)c2cncnc2)cc1` (centres undefined), the negative logarithm of the IC50 (pIC50) is 5.53.

Regarding `CN(C)C(=O)COCC(=O)NC(C(=O)Nc1cncc2ccccc12)c1cccc(Cl)c1` (centres undefined), the pIC50 is 5.27.

Compound `O=C(NCCc1cccc(F)c1)C(c1cccnc1)N(C(=O)c1ccco1)C1CCN(c2ccccc2)CC1` (centres undefined) had a pIC50 of 4.10.

For `O=C1N(c2cncc3ccccc23)CCC12CN(Cc1nncs1)Cc1ccc(Cl)cc12` (centres undefined), the negative logarithm of the IC50 (pIC50) was 6.58.

As for `O=C(Nc1cnccc1CO)[C@@H]1COc2ccc(Cl)cc21` (stereo in doubt), the pIC50 was 4.37 and 4.38.

`N#Cc1cc(N(C(=O)c2ccco2)C(C(=O)NCCc2cccc(F)c2)c2cccnc2)ccc1Oc1ccc(C(F)(F)F)cc1` (centres undefined) gave a pIC50 below 4.00.
